Inhibition data for five molecules are collected here from patent US20260001875A1, “AMINOPYRIMIDINYL DERIVATIVES FOR THE TREATMENT OF PARKINSON'S DISEASE” (UNIVERSITY OF DUNDEE, priority 2022, published 2026).

For test [1], the system named is Rab10 pThr73. Description: Rab10 Thr73 dephosphorylation (immunoblot) in LRRK2^G2019S MEFs. Conditions: Mus musculus, read-out: pRab10 inhibited in LRRK2^G2019S MEFs. It is filed as cell-based, mouse. For orientation: In western blotting, separated proteins are transferred to a membrane and probed.
The subject of test [2] is Rab10 pThr73. Described as above. The conditions noted are these: Mus musculus, read-out: pRab10 inhibited in LRRK2^G2019S MEFs. It is filed as cell-based. The method, then:
(§1) The second-generation PROTACs were tested in parallel with the first generation PROTACs SD75, SD82, and SD100. The compounds were tested at 33 nM or […] concentrations for 4 hours or 24 hours, running two biological replicates per condition and achieving quantifications representative of both replicates. Analysis by quantitative immunoblotting was performed with readouts of the total LRRK2 (antibody recognizes epitope in C-terminus of protein), Rab10 pThr73 (physiological substrate) and LRRK2 pSer935 (biomarker phosphorylation site).
(§2) Primary MEFs were generated as described in a previous study (Wiggin et al., Mol. Cell Biol. 2002 April; 22(8):2871-81.). Briefly, the uterine horn was collected from adult female mice at day E12.5 and transferred to a 10 cm tissue culture dish containing cold PBS. Two forceps were used to tear the yolk sacs to isolate each embryo. Forceps were cleaned thoroughly with 70% ethanol between each embryo isolation. The embryos were culled, and a tissue piece was collected in a PCR tube for genotyping. The red tissue of the embryo, which grows to become the heart and liver, was removed. The remainder of the embryo was minced with a scalpel blade and incubated with 7.5 ml trypsin-EDTA solution for 10 minutes in a 37° C. tissue culture CO2 incubator. The dish was removed from the incubator and checked under a light microscope for single cells. 7.5 ml complete media was added to the trypsinised cells, and the cell suspension was transferred to a 15 ml Falcon tube, centrifuged at 1200 rpm for 5 minutes at room temperature. The trypsin was aspirated, the cell pellet was resuspended in 5 ml fresh complete media, and the cell suspension was plated in a 60 mm tissue culture dish and incubated in a 37° C., 5% CO2 tissue culture incubator. The MEFs at this stage were considered as passage 0 and were passaged and expanded for experimental use once the genotype was confirmed by allelic sequencing and immunoblotting. MEFs were cultured in Dulbecco's modified Eagle medium (DMEM) containing 10% (v/v) fetal bovine serum (FBS), 2 mM L-glutamine, 100 U/ml penicillin, and 100 μg/ml streptomycin supplemented with 1× non-essential amino acids and 1 mM sodium pyruvate.
Culturing and passaging of adherent cell lines were carried out using aseptic technique in CL1 or CL2 (for PBMC isolation) biological safety cabinets. All cells were incubated in a 37° C. incubator with 5% CO2. Cell lines were regularly tested for mycoplasma contamination. For western blot assay, the cells were seeded in 6-well plates. […] The cells were immediately placed on ice and were scraped and collected into 1.5 ml Eppendorf tubes. Cell lysates were incubated on ice for 10 minutes prior to centrifugation at 15,000 g at 4° C. for 15 minutes. The cell pellet was discarded, and supernatant was collected for analysis by quantitative immunoblotting. For long term storage, the supernatant was flash frozen and stored at −80° C. Protein concentrations of cell lysates were determined using the Bradford assay.
Cell lysates containing a quarter of a volume of 4× NuPAGE LDS sample buffer (NP0007) supplemented with 5% β-mercaptoethanol, were heated at 95° C. for 5 minutes. 15 to 20 μg of samples were loaded onto pre-cast 4-12% Bis-Tris midi 20W or 26W gels (Thermofisher Scientific®, Cat #WG1402BOX or WG1403BOX) and resolved at 130 V for 2 hours with NuPAGE MOPS SDS running buffer (Thermofisher Scientific® Cat #NP0001-02). Proteins were electrophoretically transferred onto a 0.45 μm nitrocellulose membrane (GE Healthcare, Amersham Protran® Supported 0.45 mm NC) at 90 V for 90 min on ice in transfer buffer (48 mM Tris base and 39 mM glycine supplemented with 20% methanol). The transferred membrane was blocked with 5% (w/v) skim milk powder dissolved in tris-buffered saline with tween (TBS-T) (50 mM Tris base, 150 mM sodium chloride (NaCl), 0.1% (v/v) Tween-20) at room temperature for 1 hour.

For test [3], the system named is Rab10 pThr73. Description: Rab10 Thr73 dephosphorylation (immunoblot) in WT MEFs. It is filed as cell-based, mouse. Conditions: Mus musculus, read-out: pRab10 inhibited in WT MEFs. The method, then:
as §1, with “Western blot degradation assays for the LRRK2 protacs were performed with WT and PD-associated LRRK2 [G2019S] mouse embryonic fibroblasts (MEFs). The second-generation” for “The second-generation”
as §2
Culturing and passaging of adherent cell lines were carried out using aseptic technique in CL1 or CL2 (for PBMC isolation) biological safety cabinets. All cells were incubated in a 37° C. incubator with 5% CO2. Cell lines were regularly tested for mycoplasma contamination. For western blot assay, the cells were seeded in 6-well plates. After treating with testing compounds at indicated concentrations and time period, the media was removed and the cells were washed with PBS and lysed in 100 μl ice-cold complete lysis buffer containing 50 mM Tris-HCl pH 7.4, 1 mM EGTA, 10 mM 2-glycerophosphate, 50 mM sodium fluoride, 5 mM sodium pyrophosphate, 270 mM sucrose, supplemented with 1 μg/ml microcystin-LR, 1 mM sodium orthovanadate, complete EDTA-free protease inhibitor cocktail (Roche) and 1% (v/v) Triton X-100. The cells were immediately placed on ice and were scraped and collected into 1.5 ml Eppendorf tubes. Cell lysates were incubated on ice for 10 minutes prior to centrifugation at 15,000 g at 4° C. for 15 minutes. The cell pellet was discarded, and supernatant was collected for analysis by quantitative immunoblotting. For long term storage, the supernatant was flash frozen and stored at −80° C. Protein concentrations of cell lysates were determined using the Bradford assay.
Cell lysates containing a quarter of a volume of 4× NuPAGE LDS sample buffer (NP0007) supplemented with 5% β-mercaptoethanol, were heated at 95° C. for 5 minutes. […]

With `CNc1nc(Nc2ccc(C(=O)N3CCN(CCOCCOCCSC(C)(C)[C@@H](NC(=O)C4(F)CC4)C(=O)N4C[C@H](O)C[C@H]4C(=O)NCc4ccc(-c5scnc5C)cc4)CC3)cc2OC)ncc1C(F)(F)F` [XL01078B, (2S,4R)-1-((S)-2-(1-fluorocyclopropane-1-carboxamido)-3-((2-(2-(2-(4-(3-methoxy-4-((4-(methylamino)-5-(trifluoromethyl)pyrimidin-2-yl)amino)benzoyl)piperazin-1-yl)ethoxy)ethoxy)ethyl)thio)-3-methylbutanoyl)-4-hydroxy-N-(4-(4-methylthiazol-5-yl)benzyl)pyrrolidine-2-carboxamide], the inhibition at 1 µM was 20 to 100% in the test with Rab10 pThr73 [1] (1 μM/4 h treatment), 10 to 100% in the test with Rab10 pThr73 [1] (1 μM/24 h treatment), 10 to 95% in the test with Rab10 pThr73 [3] (1 μM/4 h treatment) and 30 to 100% in the test with Rab10 pThr73 [3] (1 μM/24 h treatment). Also, the inhibition at 0.033 µM is 0 to 70% with Rab10 pThr73 [2] (33 nM/4 h treatment), 0 to 90% with Rab10 pThr73 [2] (33 nM/24 h treatment), 0 to 40% with Rab10 pThr73 [3] (33 nM/4 h treatment) and 0 to 60% with Rab10 pThr73 [3] (33 nM/24 h treatment).

`CNc1nc(Nc2ccc(C(=O)N3CCN(Cc4cccc(CSC(C)(C)[C@H](NC(=O)C5(F)CC5)C(=O)N5C[C@H](O)C[C@H]5C(=O)NCc5ccc(-c6scnc6C)cc5)c4)CC3)cc2OC)ncc1Cl` [XL01111, (2S,4R)-1-((R)-3-((3-((4-(4-((5-chloro-4-(methylamino)pyrimidin-2-yl)amino)-3-methoxybenzoyl)piperazin-1-yl)methyl)benzyl)thio)-2-(1-fluorocyclopropane-1-carboxamido)-3-methylbutanoyl)-4-hydroxy-N-(4-(4-methylthiazol-5-yl)benzyl)pyrrolidine-2-carboxamide]: the inhibition at 1 µM with Rab10 pThr73 [1] (1 μM/4 h treatment) lay in the range of 20 to 100%; with Rab10 pThr73 [1] (1 μM/24 h treatment) it was 10 to 100%; with Rab10 pThr73 [3] (1 μM/4 h treatment), 10 to 95%; with Rab10 pThr73 [3] (1 μM/24 h treatment), 30 to 100%. Moreover, the inhibition at 0.033 µM lay in the range of 0 to 70% with Rab10 pThr73 [2] (33 nM/4 h treatment), 0 to 90% in the test with Rab10 pThr73 [2] (33 nM/24 h treatment), 0 to 40% in the test on Rab10 pThr73 [3] (33 nM/4 h treatment) and 0 to 60% with Rab10 pThr73 [3] (33 nM/24 h treatment).

For `CNc1nc(Nc2ccc(C(=O)N3CCN(CCCSC(C)(C)[C@H](NC(=O)C4(F)CC4)C(=O)N4C[C@H](O)C[C@H]4C(=O)N[C@@H](C)c4ccc(-c5scnc5C)cc4)CC3)cc2OC)ncc1Cl` [XL01118, (2S,4R)-1-((R)-3-((3-(4-(4-((5-chloro-4-(methylamino)pyrimidin-2-yl)amino)-3-methoxybenzoyl)piperazin-1-yl)propyl)thio)-2-(1-fluorocyclopropane-1-carboxamido)-3-methylbutanoyl)-4-hydroxy-N—((S)-1-(4-(4-methylthiazol-5-yl)phenyl)ethyl)pyrrolidine-2-carboxamide], the inhibition at 1 µM lay in the range of 20 to 100% with Rab10 pThr73 [1] (1 μM/4 h treatment), 10 to 100% in the test with Rab10 pThr73 [1] (1 μM/24 h treatment), 10 to 95% in the test on Rab10 pThr73 [3] (1 μM/4 h treatment) and 30 to 100% in the test with Rab10 pThr73 [3] (1 μM/24 h treatment). Besides, the inhibition at 0.033 µM in the test with Rab10 pThr73 [2] (33 nM/4 h treatment) fell in the range of 0 to 70%; in the test on Rab10 pThr73 [2] (33 nM/24 h treatment), 0 to 90%; with Rab10 pThr73 [3] (33 nM/4 h treatment), 0 to 40%; in the test on Rab10 pThr73 [3] (33 nM/24 h treatment), 0 to 60%.

Turning to `CNc1nc(Nc2ccc(C(=O)N3CCN(CCOCCOCCSC(C)(C)[C@H](NC(=O)C4(F)CC4)C(=O)N4C[C@H](O)C[C@H]4C(=O)N[C@@H](C)c4ccc(-c5scnc5C)cc4)CC3)cc2OC)ncc1Cl` [XL01119, (2S,4R)-1-((R)-3-((2-(2-(2-(4-(4-((5-chloro-4-(methylamino)pyrimidin-2-yl)amino)-3-methoxybenzoyl)piperazin-1-yl)ethoxy)ethoxy)ethyl)thio)-2-(1-fluorocyclopropane-1-carboxamido)-3-methylbutanoyl)-4-hydroxy-N—((S)-1-(4-(4-methylthiazol-5-yl)phenyl)ethyl)pyrrolidine-2-carboxamide], the inhibition at 1 µM lay in the range of 20 to 100% with Rab10 pThr73 [1] (1 μM/4 h treatment), 10 to 100% in the test with Rab10 pThr73 [1] (1 μM/24 h treatment), 10 to 95% in the test on Rab10 pThr73 [3] (1 μM/4 h treatment) and 30 to 100% in the test on Rab10 pThr73 [3] (1 μM/24 h treatment). For the same molecule, the inhibition at 0.033 µM with Rab10 pThr73 [2] (33 nM/4 h treatment) lay in the range of 0 to 70%; in the test with Rab10 pThr73 [2] (33 nM/24 h treatment), 0 to 90%; with Rab10 pThr73 [3] (33 nM/4 h treatment), 0 to 40%; in the test with Rab10 pThr73 [3] (33 nM/24 h treatment), 0 to 60%.

With `CNc1nc(Nc2ccc(C(=O)N3CCN(Cc4ccc(CSC(C)(C)[C@H](NC(=O)C5(F)CC5)C(=O)N5C[C@H](O)C[C@H]5C(=O)N[C@@H](C)c5ccc(-c6scnc6C)cc5)cc4)CC3)cc2OC)ncc1Cl` [XL01120, (2S,4R)-1-((R)-3-((4-((4-(4-((5-chloro-4-(methylamino)pyrimidin-2-yl)amino)-3-methoxybenzoyl)piperazin-1-yl)methyl)benzyl)thio)-2-(1-fluorocyclopropane-1-carboxamido)-3-methylbutanoyl)-4-hydroxy-N—((S)-1-(4-(4-methylthiazol-5-yl)phenyl)ethyl)pyrrolidine-2-carboxamide], the inhibition at 1 µM was 20 to 100% with Rab10 pThr73 [1] (1 μM/4 h treatment), 10 to 100% with Rab10 pThr73 [1] (1 μM/24 h treatment), 10 to 95% in the test with Rab10 pThr73 [3] (1 μM/4 h treatment) and 30 to 100% with Rab10 pThr73 [3] (1 μM/24 h treatment). For the same molecule, the inhibition at 0.033 µM with Rab10 pThr73 [2] (33 nM/4 h treatment) fell in the range of 0 to 70%; in the test on Rab10 pThr73 [2] (33 nM/24 h treatment) it was 0 to 90%; in the test on Rab10 pThr73 [3] (33 nM/4 h treatment), 0 to 40%; in the test with Rab10 pThr73 [3] (33 nM/24 h treatment), 0 to 60%.
